Reference: patent US11957684B2, “Treatment of heavy menstrual bleeding associated with uterine fibroids” (Sumitomo Pharma Switzerland GmbH, priority 2016, dated 2024)
Values joined by “and” are separate entries in the source; they are usually repeats but may differ in a detail not shown here. Equal values may be shown once.

What was measured:
[1] = Example 9 6-week phase 1 study with or without E2/NETA: pharmacokinetics; format: in vivo; settings: female, human, plasma, 40 mg; for half-life: plasma Compound 1 t1/2, mean (SD); for Tmax: plasma Compound 1 tmax, median (min, max)
From the text: (§1) Methods: This was a 6-week phase 1, randomized, open-label, parallel-group, study conducted at 4 sites in the US. […] The first day of dosing occurred on Day 1 to 6 of the menstrual cycle. Hormonal preparations were prohibited for at least 3 months prior to screening. […] Vasomotor symptoms were captured using a daily diary (from screening until follow-up).

[2] = Example 5A: plasma concentrations, population PK; format: in vivo, human
Protocol: At Visit 3, blood was drawn twice, at 0.5 to 1.5 hours postdose and at 2 to 5 hours postdose, from each evaluable subject. At Visits 4, 5 and 6, blood was drawn once immediately prior to the dose for each day, and again at 0.5 to 1.5 hours postdose and at 2 to 5 hours postdose, from each evaluable subject. Blood was drawn only once for patients who took the study drug for the day before visiting the investigational site. At Visit 7, blood was drawn only once at the visit.

[3] = system: healthy pre-menopausal women; test: Example 9: pharmacodynamics, menstruation, hot flash diary, bone resorption markers; format: in vivo, human
From the text: as §1

clinical = settings: female, human, in vivo
Protocol: The study was a phase 1, double-blind, randomized, placebo-controlled, sequential-panel, ascending single- and multiple-dose study in healthy premenopausal women. Ten groups, each of 12 healthy premenopausal, adult women, participated in the study (Cohorts 1 to 10).
Cohorts 1 to 6 were referred to as the single-rising dose (SRD) portion of the study, where cohorts were dosed in an escalating fashion. All subjects in a given cohort received their dose of study medication on the same day with the exception of subjects in Cohort 1, which were split into 2 subcohorts (Cohorts 1a and 1b). Dosing between these 2 subcohorts was separated by a minimum of 2 days. Dosing between subsequent cohorts was separated by a minimum of 7 days. The decision to proceed to Cohort 1b was made by the investigator after a minimum 48-hour evaluation of subjects in Cohort 1a. The decision to escalate the dose for the remaining cohorts in the SRD portion was based on review of the safety and pharmacokinetic data for all subjects in the previous cohort.
Subjects were required to fast overnight (minimum 10 hours) prior to dosing and continued to fast for 4 hours following dosing. Subjects were given a menu for the dosing period to include 2 meals and an evening snack, each containing approximately 25% fat content. Six ascending dose groups were planned: 1.0 mg (Cohort 1), 5.0 mg (Cohort 2), 10 mg (Cohort 3), 20 mg (Cohort 4), 40 mg (Cohort 5), and 80 mg (Cohort 6). Subjects in each of Cohorts 1a, 1b, 2, 3, 4, 5 and 6 received drug dosing on a single day only.
Cohorts 1 to 7 were each composed of 12 healthy premenopausal women aged 18 to 49 years, inclusive. […] In one sequence, dosing was under fasting conditions (minimum 10 hours). In the other sequence, dosing was approximately 30 minutes after the start of a high-fat, high calorie breakfast (provided approximately 1000 calories, with 50% of the calories from fat).
Cohorts 8 to 10 were each composed of 12 healthy premenopausal women aged 18 to 45 years, inclusive. Cohorts 8 to 10 were referred to as the multiple-rising dose (MRD) portion of the study, where cohorts were dosed in escalating fashion. The MRD portion was not started until all the blinded safety and pharmacokinetic data from the SRD cohorts had been assessed by the investigator and the sponsor. […] Subjects received the first dose of study medication (Day 1) within 2 to 7 days following the onset of their menstrual cycle. Three ascending dose groups were planned: 10 mg once-daily (QD) (Cohort 8), 20 mg QD (Cohort 9), and 40 mg QD (Cohort 10). Subjects in each of Cohorts 8 to 10 received drug dosing on 14 days (Days 1 to 14).
Subjects had to drink all of the water provided with the dose of study drug. Subjects were able to consume water ad libitum with the exception of 1 hour prior to and 1 hour after drug administration, not including the 240 mL of water taken with dosing.
To assess the food effect, an analysis of variance was performed using Cohort 7 log(mean Cmax), log(area under the plasma drug concentration-time curves [mean plasam AUCs]) as dependent variable; treatment, sequence, period as fixed effects; and subject (seq) as a random effect.

FIG. 10 = test: FIG. 10
Protocol: Table printed on a drawing sheet, FIG. 10
The patent's description of the figure: FIG. 10 is a table of urine PK parameters for Cohort 7 in accordance with Example 4.
First reader's note: Urine PK parameters for Cohort 7 (fed vs fasted, 40 mg); each column is a dosing arm and the rows give summary statistics per parameter.

FIG. 6A = test: FIG. 6A
Protocol: Table printed on a drawing sheet, FIG. 6A
The patent's description of the figure: FIGS. 6A-C are tables of plasma PK parameters for Cohort 7 in accordance with Example 4.
First reader's note: Plasma PK parameters for the fed and fasted 40 mg arms; the table continues in FIGS. 6B-C on other sheets.

FIG. 7D = test: FIG. 7D
From the text: Table printed on a drawing sheet, FIG. 7D
The patent's description of the figure: FIGS. 7A-F are tables of plasma PK parameters for Cohorts 8 to 10 in accordance with Example 4.

## CONC(=O)Nc1ccc(-c2sc3c(c2CN(C)C)c(=O)n(-c2ccc(OC)nn2)c(=O)n3Cc2c(F)cccc2F)cc1 [Compound 1, N-(4-(1-(2,6-difluorobenzyl)-5-((dimethylamino)methyl)-3-(6-methoxy-3-pyridazinyl)-2,4-dioxo-1,2,3,4-tetrahydrothieno[2,3-d]pyrimidin-6-yl)phenyl)-N′-methoxyurea]
[1]; Compound 1 AUC0-24, geometric mean (CV%), Week 6
  AUC(0-t): 116 ng·h/mL
[1]; Compound 1 Cmax, geometric mean (CV%), Week 6
  Cmax: 17.6 ng/mL
[1]; plasma Compound 1 AUC0-24, mean (SD), Week 3
  AUC(0-t): 133 ng·h/mL
[1]; plasma Compound 1 AUC0-24, mean (SD), Week 6
  AUC(0-t): 125 ng·h/mL
[1]; plasma Compound 1 Cavg, mean (SD), Week 3
  concentration at 3 week: 5.53 ng/mL
[1]; plasma Compound 1 Cavg, mean (SD), Week 6
  concentration at 6 week: 5.2 ng/mL
[1]; plasma Compound 1 Cmax, mean (SD), Week 3
  Cmax: 21.8 ng/mL
[1]; plasma Compound 1 Cmax, mean (SD), Week 6
  Cmax: 19.5 ng/mL
[1]; plasma Compound 1 Ctrough, mean (SD), Week 3
  concentration at 3 week: 2.57 ng/mL
[1]; plasma Compound 1 Ctrough, mean (SD), Week 6
  concentration at 6 week: 2.45 ng/mL
[1]; Week 3
  half-life: 16.7 h
  Tmax: 2.02 h
[1]; Week 6
  half-life: 17.1 h
  Tmax: 2 h
[2]; human, plasma, oral, population PK, read-out: relative bioavailability higher in 40-mg compared with 10-mg
  increase in relative bioavailability, 40 mg vs 10 mg: 30.9%
[2]; population estimate
  absorption rate constant (ka): 0.416 h⁻¹
  apparent oral clearance (CL/F): 198 L/h
[3]; last 28 days of treatment
  No bleeding: 18 (72.0%) n (%)
  No light/normal/heavy bleeding (i.e., no bleeding except spotting): 22 (88.0%) n (%)
  No normal/heavy bleeding: 23 (92.0%) n (%)
  subjects reporting no menstrual bleeding (except spotting): 88.0%
  subjects reporting no normal or heavy bleeding: 92.0%
[3]; week 6
  average number of hot flash per subject (any severity): 72.6
  number of hot flash in subjects reporting severe hot flash: 63.2
  proportion of subjects reporting hot flash: 60%
clinical
  CL renal: 95 to 138 mL/min
  Tmax, all subjects: ≤ 2 h
  half-life: 14 to 16 h
  mean Fe (fraction of dose excreted in urine): less than 3%
  median Tmax: 1 to 1.48 h
clinical; 1 mg
  half-life: ~6 h
clinical; 80 mg, median Tmax
  Tmax: 4 h
FIG. 10
  CLr (L/hr) | Mean: 6.1047 L/h and 6.7583 L/h
  Fe (%) | Mean: 0.919% and 1.963%
FIG. 6A
  AUC (O-inf) (ng*hr/mL) | Mean: 63.437 ng·h/mL and 125.275 ng·h/mL
  AUC (O-tlqc) (ng*hr/mL) | Mean: 55.792 ng·h/mL and 110.782 ng·h/mL
FIG. 7D
  Tmax (hr) | Median: 0.980 h and 1.480 h and 1.000 h
